Among the data in patent US8877745B2, “CCR2 receptor antagonists, method for producing the same, and use thereof as medicaments” (Boehringer Ingelheim International GmbH, priority 2010, dated 2014) are Ki values, retold here.

In the test the target is T1, CCR2 (Homo sapiens, UniProt P41597).
T1 construct: Membranes were prepared from THP-1 cells; endogenous in cells; host or cells: THP-1 (human acute monocytic leukaemia cells), membrane preparation
T1 sequence (P41597 whole entry): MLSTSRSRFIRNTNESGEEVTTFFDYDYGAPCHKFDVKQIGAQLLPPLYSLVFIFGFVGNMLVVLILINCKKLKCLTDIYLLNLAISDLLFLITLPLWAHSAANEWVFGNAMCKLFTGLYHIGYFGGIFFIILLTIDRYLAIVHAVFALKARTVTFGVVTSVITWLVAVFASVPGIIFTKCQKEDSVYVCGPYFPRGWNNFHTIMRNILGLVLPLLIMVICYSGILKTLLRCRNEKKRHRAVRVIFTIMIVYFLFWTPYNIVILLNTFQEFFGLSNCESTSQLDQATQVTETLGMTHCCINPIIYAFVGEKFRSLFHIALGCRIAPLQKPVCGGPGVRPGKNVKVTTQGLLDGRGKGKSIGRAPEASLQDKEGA
Kind of test: CCR2 receptor membrane binding assay ([125I]MCP-1, THP-1 cell membranes, SPA beads). Conditions: THP-1 membranes, [125I]MCP-1, bound radioactivity determined after 8 h; read-out: hKi. The method, then: The above exemplary substances have been tested for binding to CCR2 using a binding assay as outlined herein below:
THP-1 cells (human acute monocytic leukaemia cells) were cultured under standardized conditions at 37° C. and 5% CO2 in a humidified incubator. THP-1 cells were cultivated in RPMI 1640 medium (Gibco 21875) containing 1% MEM-NEAA (Gibso 11140) 2 mM L-glutamine, 1.5 g/L sodium bicarbonate, 4.5 g/L glucose, 10 mM HEPES and 1.0 mM sodium pyruvate, 90%; 10% fetal calf serum (FCS Gibco 10500-064).
Membranes were prepared from THP-1 cells. THP-1 cells were centrifuged at 300×g at 4° C. for 10 min. The cell pellet was resuspended in Phosphate Buffer Saline (PBS, including 10 μM Pefabloc and a protease inhibitor mix ‘complete’, Boehringer Mannheim (1 tablet/50 ml)), to a concentration of […]. The membrane preparation was performed by disrupting the cells by nitrogen […] (at 50 bar, for 1 h) in a “Nitrogen Bombe” (Parr Instrument). Cell debris was removed by centrifugation (800×g at 4° C., 1 min). The supernatant was centrifuged at 80000×g, 4° C. for 30 min to sediment the cell membranes. Usually 50 mg of protein (Bradford assay) were yielded from 1×10E9 cells. The membranes were resuspended in 25 mM HEPES, 25 mM MgCl2, 1 mM CaCl2, 10% Glycerine for storage in aliquots at −80° C. in 25 mM HEPES, 25 mM MgCl2, 1 mM CaCl2, 10% Glycerine and stored at −80° C.
Receptor Membrane Binding Assay:
Perkin Elmer NEX 332 Jod 125 MCP-1, Stock: 2200 Ci/mmol solved in […] assay buffer, stored at −20° C. THP-1 membrane were adjusted with 25 mM HEPES, pH 7.2; 5 mM MgCl2; 0.5 mM CaCl2; 0.2% BSA assay buffer to a concentration of 2.5 μg/15 μl. Amersham Biosciences PVT-WGA Beads (RPNQ0001) were adjusted with assay buffer to a concentration of 0.24 mg/30 μl. For preparation of the membrane-bead-suspension membranes and beads were incubated for 30 min at RT under rotation (60 rpm) with a ratio of 1:2. Test compounds dissolved in 100% DMSO to a concentration of 10 mM and are further diluted with 100% DMSO to 1 mM. All additional compound dilutions were obtained with assay buffer, final 1% DMSO. Compounds, membrane-bead-suspension and [^125I]MCP-1 (ca. 25000 cpm/10 μl) were incubated. Bound radioactivity was determined by scintillation counter after 8 h. Determination of affinity of test compounds (dissociation constant hKi) is calculated by iterative fitting of experimental data using the “easy sys” program, which is based on law of mass action (Schittkowski K. (1994), Numerische Mathematik, Vol. 68, 129-142).
On to `CO[C@H]1COCC[C@H]1NC1CCN(C(=O)c2ncnc(N3CCc4ccc(C(F)(F)F)cc4C3)c2C)CC1` [Example 64], for which the Ki was found to be 13 nM.
With `CO[C@@H]1COCC[C@@H]1NC1CCN(C(=O)c2ncnc(N3CCc4ccc(OC(F)(F)F)cc4C3)c2C)CC1` [Example 65] the figure was 16 nM; with `CO[C@@H]1COCC[C@@H]1NC1CCN(C(=O)c2ncnc(N3CCc4ccc(Cl)cc4C3)c2C)CC1` [Example 66], 22 nM; with `COc1c(C(=O)N2CCC(N[C@@H]3CCOC[C@@H]3OC)CC2)ncnc1N1CCc2ccc(C(F)(F)F)cc2C1` [Example 67], 21 nM.
Turning to `COc1c(C(=O)N2CCC(N3CCC(N(C)S(C)(=O)=O)CC3)CC2)ncnc1N1CCc2ccc(C(F)(F)F)cc2C1` [Example 68], the Ki is 50 nM.
In the case of `COc1c(C(=O)N2CCC(N3CCC(N(C)S(C)(=O)=O)CC3)CC2)ncnc1N1CCc2ccc(OC(F)(F)F)cc2C1` [Example 69], the Ki was 62 nM.
With `CO[C@@H]1COCC[C@@H]1NC1CCN(C(=O)c2ccnc(N3CCc4ccc(C(F)(F)F)cc4C3)c2C)CC1` [Example 69a] the figure was 30 nM; with `Cc1c(C(=O)N2CCC(N[C@@H]3CCOC[C@@H]3F)CC2)ncnc1N1CCc2ccc(Br)cc2C1` [Example 69ab], 37 nM.
Take `Cc1c(C(=O)N2CCC(N[C@H]3CCOC[C@H]3F)CC2)ncnc1N1CCc2ccc(Br)cc2C1` [Example 69ac]: the Ki was found to be 96 nM.
As for `COc1c(C(=O)N2CCC(N[C@H]3CCOC[C@H]3OC)CC2)ncnc1N1CCc2ccc(C(F)(F)F)cc2C1` [Example 69b], the figure is 9 nM.
Consider `COc1c(C(=O)N2CCC(N[C@@H]3CCOC[C@@H]3OC)CC2)ncnc1N1CCc2ccc(OC(F)(F)F)cc2C1` [Example 69c], for which the Ki was found to be 28 nM.
With `COc1c(C(=O)N2CCC(N[C@H]3CCOC[C@H]3OC)CC2)ncnc1N1CCc2ccc(OC(F)(F)F)cc2C1` [Example 69d], the Ki was determined as 11 nM.
As for `CO[C@@H]1COCC[C@@H]1NC1CCN(C(=O)c2ncnc(N3COc4ccc(C(F)(F)F)cc4C3)c2C)CC1` [Example 69e], the figure is 1 nM; as for `CO[C@@H]1COCC[C@@H]1NC1CCN(C(=O)c2ncnc(N3CCc4ccc(C)cc4C3)c2C)CC1` [Example 69f], 17 nM; as for `Cc1c(C(=O)N2CCC(N3CCC(N(C)S(C)(=O)=O)CC3)CC2)ncnc1-n1ccc2cc(C(F)(F)F)ccc21` [Example 69g], 1300 nM.
`CO[C@@H]1COCC[C@@H]1NC1CCN(C(=O)c2ncnc(N3CCc4ccc(F)cc4C3)c2C)CC1` [Example 69h]: the Ki amounted to 39 nM.
On to `COc1nc(C(=O)N2CCC(N[C@@H]3CCOC[C@@H]3OC)CC2)c(C)c(N2CCc3ccc(C(F)(F)F)cc3C2)n1` [Example 69i], for which the Ki is 4 nM.
Take `COc1nc(C(=O)N2CCC(N[C@H]3CCOC[C@H]3OC)CC2)c(C)c(N2CCc3ccc(C(F)(F)F)cc3C2)n1` [Example 69j]: the Ki was determined as 1 nM.
For `Cc1c(C(=O)N2CCC(NC3CCOCC3F)CC2)ncnc1N1CCc2ccc(C(F)(F)F)cc2C1` (stereo not shown) [Example 69k], the Ki came out at 29 nM.
As for `Cc1c(C(=O)N2CCC(N[C@@H]3CCOC[C@@H]3F)CC2)ncnc1N1COc2ccc(C(F)(F)F)cc2C1` [Example 69l], the Ki is 14 nM.
For the compound `Cc1c(C(=O)N2CCC(N[C@@H]3CCOC[C@@H]3F)CC2)ncnc1N1CCc2ccc(C(F)(F)F)cc2C1` [Example 69m], the Ki is 16 nM.
Regarding `Cc1c(C(=O)N2CCC(N[C@H]3CCOC[C@H]3F)CC2)ncnc1N1CCc2ccc(C(F)(F)F)cc2C1` [Example 69n], the Ki worked out at 24 nM.
Turning to `Cc1c(C(=O)N2CCC(N[C@H]3CCOC[C@H]3F)CC2)ncnc1N1COc2ccc(C(F)(F)F)cc2C1` [Example 69o], the Ki was 10 nM.
Regarding `CO[C@@H]1COCC[C@@H]1NC1CCN(C(=O)c2ncnc(N3CCc4cc(C(F)(F)F)ccc4C3)c2C)CC1` [Example 69p], the Ki was determined as 6 nM.
With `CO[C@H]1COCC[C@H]1NC1CCN(C(=O)c2nc(C3CC3)nc(N3CCc4ccc(C(F)(F)F)cc4C3)c2C)CC1` [Example 69q], the Ki is 0.7 nM.
